According to ChEMBL document CHEMBL5465560, “Selectivity Literature for EUbOPEN Chemogenomic Library” (2024):
Blank lines part the entries; values can stand above or below the compound they belong to.

Assays:
Aurora kinase B = Aurora kinase B (Homo sapiens, UniProt Q96GD4); assay: Selectivity interaction (Panel of kinases, GPCRs, ion channels and transporters (enzymatic assay)) EUB0000266bCl AURKB
[1] = target: Glycogen synthase kinase-3 beta (Homo sapiens, UniProt P49841); assay: Selectivity interaction (KinomeScan (DiscoverX)) EUB0000595a GSK3B; details: at 10 µM
[2] = target: Platelet-derived growth factor receptor alpha (Homo sapiens, UniProt P16234); assay: Selectivity interaction (KinomeScan (DiscoverX)) EUB0000595a PDGFRA; details: at 10 µM
[3] = target: Myosin light chain kinase, smooth muscle (Homo sapiens, UniProt Q15746); assay: Selectivity interaction (KinomeScan (DiscoverX)) EUB0000655a MYLK; details: at 10 µM
[4] = target: T1, SNF-related serine/threonine-protein kinase (Homo sapiens) (UniProt Q9NRH2); assay: Selectivity interaction (KinomeScan (DiscoverX)) EUB0000655a SNRK; details: at 10 µM
T1 sequence (whole entry): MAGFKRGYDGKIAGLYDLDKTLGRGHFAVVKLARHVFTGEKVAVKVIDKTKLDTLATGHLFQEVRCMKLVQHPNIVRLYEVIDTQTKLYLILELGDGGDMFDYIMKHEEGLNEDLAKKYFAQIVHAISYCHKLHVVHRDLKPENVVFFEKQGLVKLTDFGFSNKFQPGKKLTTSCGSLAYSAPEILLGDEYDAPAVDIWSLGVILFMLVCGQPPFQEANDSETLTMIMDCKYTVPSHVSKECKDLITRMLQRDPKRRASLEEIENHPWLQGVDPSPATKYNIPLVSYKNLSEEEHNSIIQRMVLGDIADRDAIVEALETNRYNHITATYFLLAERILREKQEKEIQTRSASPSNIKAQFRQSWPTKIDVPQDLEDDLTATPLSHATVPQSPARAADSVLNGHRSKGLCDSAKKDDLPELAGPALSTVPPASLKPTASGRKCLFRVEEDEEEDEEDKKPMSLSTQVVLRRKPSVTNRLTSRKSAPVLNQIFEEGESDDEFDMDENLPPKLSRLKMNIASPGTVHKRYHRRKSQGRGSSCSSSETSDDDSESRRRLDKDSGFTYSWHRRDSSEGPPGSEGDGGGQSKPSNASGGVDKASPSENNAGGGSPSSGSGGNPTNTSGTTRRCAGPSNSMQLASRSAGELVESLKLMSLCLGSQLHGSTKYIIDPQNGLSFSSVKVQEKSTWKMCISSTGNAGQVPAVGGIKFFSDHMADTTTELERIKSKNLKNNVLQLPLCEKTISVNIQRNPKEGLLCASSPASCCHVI

[5] = target: Serine/threonine-protein kinase/endoribonuclease IRE1 (Homo sapiens) (UniProt O75460); assay: Selectivity interaction (KinomeScan (DiscoverX)) EUB0000655a ERN1; details: at 10 µM
[6] = target: Serine/threonine-protein kinase Nek4 (Homo sapiens) (UniProt P51957); assay: Selectivity interaction (KinomeScan (DiscoverX)) EUB0001619a NEK4; details: at 1 µM
[7] = target: Phosphatidylinositol 4,5-bisphosphate 3-kinase catalytic subunit gamma isoform (Homo sapiens) (UniProt P48736); assay: Selectivity interaction (KinomeScan (DiscoverX)) EUB0000618a PIK3CG; details: at 10 µM
[8] = target: T2, Dual specificity protein kinase TTK (Homo sapiens) (UniProt P33981); assay: Selectivity interaction (KinomeScan (DiscoverX)) EUB0000618a TTK; details: at 10 µM
T2 sequence (whole entry): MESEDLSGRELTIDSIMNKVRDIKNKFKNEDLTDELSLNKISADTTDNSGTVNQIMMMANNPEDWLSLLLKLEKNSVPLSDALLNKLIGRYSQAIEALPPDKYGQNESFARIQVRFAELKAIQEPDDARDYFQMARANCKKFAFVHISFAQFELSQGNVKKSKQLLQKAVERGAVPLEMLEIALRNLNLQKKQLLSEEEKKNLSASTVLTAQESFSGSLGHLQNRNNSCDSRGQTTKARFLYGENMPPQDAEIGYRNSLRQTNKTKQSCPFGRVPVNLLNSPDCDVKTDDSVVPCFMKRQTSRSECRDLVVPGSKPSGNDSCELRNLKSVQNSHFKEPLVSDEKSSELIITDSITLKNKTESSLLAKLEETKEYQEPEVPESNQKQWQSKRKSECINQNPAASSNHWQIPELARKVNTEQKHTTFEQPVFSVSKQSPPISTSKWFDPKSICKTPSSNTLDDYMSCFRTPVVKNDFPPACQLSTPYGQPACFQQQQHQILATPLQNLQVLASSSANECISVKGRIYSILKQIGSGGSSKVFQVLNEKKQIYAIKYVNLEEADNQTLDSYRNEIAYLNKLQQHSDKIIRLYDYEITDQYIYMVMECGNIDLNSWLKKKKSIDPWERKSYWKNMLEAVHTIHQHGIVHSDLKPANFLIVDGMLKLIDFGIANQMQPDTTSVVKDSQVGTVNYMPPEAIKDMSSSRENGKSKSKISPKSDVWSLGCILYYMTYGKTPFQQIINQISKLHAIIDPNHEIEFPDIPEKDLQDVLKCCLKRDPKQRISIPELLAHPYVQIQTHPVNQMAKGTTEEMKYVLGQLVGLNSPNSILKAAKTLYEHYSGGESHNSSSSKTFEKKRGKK

[9] = target: Sodium-dependent noradrenaline transporter (Homo sapiens, UniProt P23975); assay: Selectivity interaction (Safety Panel 44tm (Eurofins)) EUB0000162b SLC6A2; details: at 10 µM
[10] = target: Serine/threonine-protein kinase PAK 1 (Homo sapiens) (UniProt Q13153); assay: Selectivity interaction (Kinase panel (DSF assay)) EUB0001559a PAK1

Chain of Glycogen synthase kinase-3 beta (P49841 whole entry, looked up): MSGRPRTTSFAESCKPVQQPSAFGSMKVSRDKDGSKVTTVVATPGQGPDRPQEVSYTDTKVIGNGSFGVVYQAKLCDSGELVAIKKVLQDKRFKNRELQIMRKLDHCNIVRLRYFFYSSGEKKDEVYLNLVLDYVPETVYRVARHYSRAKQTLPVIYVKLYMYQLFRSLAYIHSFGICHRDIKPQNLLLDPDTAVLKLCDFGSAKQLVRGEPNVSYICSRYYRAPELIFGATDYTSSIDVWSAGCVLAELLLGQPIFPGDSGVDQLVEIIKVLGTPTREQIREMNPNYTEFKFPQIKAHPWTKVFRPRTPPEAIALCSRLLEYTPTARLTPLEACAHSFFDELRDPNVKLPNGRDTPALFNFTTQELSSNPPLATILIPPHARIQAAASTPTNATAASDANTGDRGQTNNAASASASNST
Chain of Serine/threonine-protein kinase Nek4 (Homo sapiens) (P51957 whole entry, looked up, canonical isoform): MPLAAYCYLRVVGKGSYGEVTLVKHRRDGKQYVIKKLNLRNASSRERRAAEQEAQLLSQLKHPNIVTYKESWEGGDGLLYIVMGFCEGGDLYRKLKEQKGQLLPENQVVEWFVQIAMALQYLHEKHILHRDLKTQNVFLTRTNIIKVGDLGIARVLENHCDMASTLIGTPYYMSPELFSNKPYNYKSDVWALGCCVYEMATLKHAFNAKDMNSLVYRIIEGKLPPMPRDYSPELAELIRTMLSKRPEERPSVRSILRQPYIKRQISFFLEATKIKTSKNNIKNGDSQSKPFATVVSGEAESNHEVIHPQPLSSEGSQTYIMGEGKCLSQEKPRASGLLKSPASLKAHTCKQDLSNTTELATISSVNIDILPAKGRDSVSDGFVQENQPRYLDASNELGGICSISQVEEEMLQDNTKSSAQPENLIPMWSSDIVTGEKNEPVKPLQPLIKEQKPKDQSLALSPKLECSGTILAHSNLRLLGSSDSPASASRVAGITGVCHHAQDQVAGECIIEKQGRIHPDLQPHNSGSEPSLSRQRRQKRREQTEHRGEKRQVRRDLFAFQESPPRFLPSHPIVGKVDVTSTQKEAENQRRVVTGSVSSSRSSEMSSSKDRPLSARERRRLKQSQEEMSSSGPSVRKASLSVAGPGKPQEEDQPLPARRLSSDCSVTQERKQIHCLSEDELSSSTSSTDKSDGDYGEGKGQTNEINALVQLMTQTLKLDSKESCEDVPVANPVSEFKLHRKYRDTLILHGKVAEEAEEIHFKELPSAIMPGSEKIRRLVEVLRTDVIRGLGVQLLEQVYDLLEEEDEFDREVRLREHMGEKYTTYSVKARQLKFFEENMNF
Chain of Phosphatidylinositol 4,5-bisphosphate 3-kinase catalytic subunit gamma isoform (Homo sapiens) (P48736 whole entry, looked up, canonical isoform): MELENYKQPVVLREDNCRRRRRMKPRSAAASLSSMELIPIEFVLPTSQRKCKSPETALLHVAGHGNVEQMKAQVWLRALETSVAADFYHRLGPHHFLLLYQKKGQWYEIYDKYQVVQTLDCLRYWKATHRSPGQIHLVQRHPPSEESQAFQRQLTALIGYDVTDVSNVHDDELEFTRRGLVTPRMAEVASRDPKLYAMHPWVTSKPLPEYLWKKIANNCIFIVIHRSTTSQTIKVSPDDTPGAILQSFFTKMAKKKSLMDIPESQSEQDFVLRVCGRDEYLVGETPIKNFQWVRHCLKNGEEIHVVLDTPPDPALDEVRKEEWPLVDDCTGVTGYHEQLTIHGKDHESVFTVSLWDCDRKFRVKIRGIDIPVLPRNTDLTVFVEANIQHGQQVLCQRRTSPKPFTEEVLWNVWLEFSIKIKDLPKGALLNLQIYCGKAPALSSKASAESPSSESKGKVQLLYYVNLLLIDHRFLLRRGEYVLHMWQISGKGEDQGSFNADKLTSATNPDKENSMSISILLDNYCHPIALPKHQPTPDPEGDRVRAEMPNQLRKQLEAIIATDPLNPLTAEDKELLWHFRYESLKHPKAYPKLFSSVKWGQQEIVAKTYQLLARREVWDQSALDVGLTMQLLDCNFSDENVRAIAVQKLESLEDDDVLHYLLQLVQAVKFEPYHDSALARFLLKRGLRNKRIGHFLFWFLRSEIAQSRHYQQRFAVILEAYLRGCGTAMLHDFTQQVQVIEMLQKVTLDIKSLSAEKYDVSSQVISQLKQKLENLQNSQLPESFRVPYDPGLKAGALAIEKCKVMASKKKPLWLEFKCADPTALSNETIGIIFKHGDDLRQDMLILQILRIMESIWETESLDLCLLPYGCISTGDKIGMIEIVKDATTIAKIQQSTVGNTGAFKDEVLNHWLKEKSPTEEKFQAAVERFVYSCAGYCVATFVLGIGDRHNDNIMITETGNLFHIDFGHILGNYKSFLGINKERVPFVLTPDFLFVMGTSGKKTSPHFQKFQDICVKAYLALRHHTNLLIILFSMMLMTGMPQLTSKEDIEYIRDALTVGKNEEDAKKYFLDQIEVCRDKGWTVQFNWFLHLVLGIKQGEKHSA
Chain of Serine/threonine-protein kinase/endoribonuclease IRE1 (Homo sapiens) (O75460 19-977 limits assumed): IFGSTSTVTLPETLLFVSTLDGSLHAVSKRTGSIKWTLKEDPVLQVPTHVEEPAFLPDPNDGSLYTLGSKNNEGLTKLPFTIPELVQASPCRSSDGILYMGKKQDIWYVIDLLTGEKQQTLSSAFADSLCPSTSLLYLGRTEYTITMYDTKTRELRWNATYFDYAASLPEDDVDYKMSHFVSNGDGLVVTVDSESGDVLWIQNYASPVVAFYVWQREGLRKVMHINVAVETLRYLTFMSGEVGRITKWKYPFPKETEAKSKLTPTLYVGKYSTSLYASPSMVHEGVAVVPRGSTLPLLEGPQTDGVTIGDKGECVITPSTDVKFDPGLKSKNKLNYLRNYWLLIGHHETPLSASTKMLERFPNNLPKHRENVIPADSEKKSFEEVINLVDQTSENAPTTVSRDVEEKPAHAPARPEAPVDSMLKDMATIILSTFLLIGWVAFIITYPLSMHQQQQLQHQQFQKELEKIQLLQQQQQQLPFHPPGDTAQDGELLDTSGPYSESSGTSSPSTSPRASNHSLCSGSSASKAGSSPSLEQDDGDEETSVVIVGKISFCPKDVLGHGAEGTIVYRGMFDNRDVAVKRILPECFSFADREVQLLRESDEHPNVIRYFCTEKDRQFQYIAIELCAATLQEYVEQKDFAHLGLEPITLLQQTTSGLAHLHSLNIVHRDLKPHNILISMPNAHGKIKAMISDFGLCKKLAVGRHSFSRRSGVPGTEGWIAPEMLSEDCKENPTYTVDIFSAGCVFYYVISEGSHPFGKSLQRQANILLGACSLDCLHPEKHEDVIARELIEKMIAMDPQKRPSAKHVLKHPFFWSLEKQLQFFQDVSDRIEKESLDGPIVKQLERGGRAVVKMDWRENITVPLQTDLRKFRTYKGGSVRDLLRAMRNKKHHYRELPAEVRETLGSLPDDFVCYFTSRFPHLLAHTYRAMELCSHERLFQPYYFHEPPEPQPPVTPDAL
Chain of Platelet-derived growth factor receptor alpha (P16234 whole entry): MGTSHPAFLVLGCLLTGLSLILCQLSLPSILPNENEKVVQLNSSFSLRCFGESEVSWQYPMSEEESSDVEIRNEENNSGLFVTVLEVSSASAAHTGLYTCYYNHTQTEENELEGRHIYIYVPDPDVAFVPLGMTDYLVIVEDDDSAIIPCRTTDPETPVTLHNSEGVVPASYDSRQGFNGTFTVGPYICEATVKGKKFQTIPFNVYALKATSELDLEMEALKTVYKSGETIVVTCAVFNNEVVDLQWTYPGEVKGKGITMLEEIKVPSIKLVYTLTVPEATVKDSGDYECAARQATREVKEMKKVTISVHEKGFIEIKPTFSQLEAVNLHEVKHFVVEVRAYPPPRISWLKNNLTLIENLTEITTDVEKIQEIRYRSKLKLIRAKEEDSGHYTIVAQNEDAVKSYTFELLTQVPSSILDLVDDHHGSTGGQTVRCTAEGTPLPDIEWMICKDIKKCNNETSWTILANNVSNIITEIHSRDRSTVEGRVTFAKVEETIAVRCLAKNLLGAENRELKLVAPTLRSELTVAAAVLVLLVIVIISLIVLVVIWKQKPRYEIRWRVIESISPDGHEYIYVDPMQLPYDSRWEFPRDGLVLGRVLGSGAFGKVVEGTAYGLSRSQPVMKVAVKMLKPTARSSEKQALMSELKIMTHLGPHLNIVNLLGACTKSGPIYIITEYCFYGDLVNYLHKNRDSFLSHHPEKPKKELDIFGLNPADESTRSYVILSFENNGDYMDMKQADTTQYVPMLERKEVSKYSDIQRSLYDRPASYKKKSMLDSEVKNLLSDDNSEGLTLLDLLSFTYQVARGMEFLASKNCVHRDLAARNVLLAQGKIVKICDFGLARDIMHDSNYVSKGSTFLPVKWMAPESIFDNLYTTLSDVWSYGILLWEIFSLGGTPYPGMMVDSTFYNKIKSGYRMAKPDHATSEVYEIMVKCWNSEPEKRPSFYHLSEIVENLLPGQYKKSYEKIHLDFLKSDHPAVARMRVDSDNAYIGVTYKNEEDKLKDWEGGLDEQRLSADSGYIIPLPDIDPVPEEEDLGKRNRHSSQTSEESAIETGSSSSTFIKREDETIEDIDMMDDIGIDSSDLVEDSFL
Chain of Sodium-dependent noradrenaline transporter (P23975 whole entry): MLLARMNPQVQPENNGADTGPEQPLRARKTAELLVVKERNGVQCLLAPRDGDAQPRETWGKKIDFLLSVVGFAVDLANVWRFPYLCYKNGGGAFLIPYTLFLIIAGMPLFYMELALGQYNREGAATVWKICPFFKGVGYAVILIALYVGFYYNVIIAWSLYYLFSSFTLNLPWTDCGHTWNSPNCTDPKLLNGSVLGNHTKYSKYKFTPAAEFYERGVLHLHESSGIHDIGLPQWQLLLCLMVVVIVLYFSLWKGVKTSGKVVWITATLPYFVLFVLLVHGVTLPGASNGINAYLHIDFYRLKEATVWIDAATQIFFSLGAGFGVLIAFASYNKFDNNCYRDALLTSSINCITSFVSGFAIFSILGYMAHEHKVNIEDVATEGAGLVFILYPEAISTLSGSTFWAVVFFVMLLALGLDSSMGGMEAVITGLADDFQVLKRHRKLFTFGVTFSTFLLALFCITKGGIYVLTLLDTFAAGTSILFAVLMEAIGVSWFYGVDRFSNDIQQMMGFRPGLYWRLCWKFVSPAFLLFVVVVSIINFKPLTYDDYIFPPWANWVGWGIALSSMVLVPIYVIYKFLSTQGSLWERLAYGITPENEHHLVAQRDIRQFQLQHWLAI

pXC50 (Aurora kinase B): < 4.5 M
SMILES: CCn1c(-c2nc3cc(C(=O)N4CCCC(N)C4)ccc3n2C)cc2ccccc21 (stereo unspecified)

SMILES: COCC(=O)NC/C=C/c1ccc2ncnc(Nc3ccc(Oc4ccc(C)nc4)c(C)c3)c2c1 [CP-724714]
% of control [1]: 68% | % of control [2]: 56%

SMILES: CN(C)CCOc1ccc(-c2nc(-c3ccncc3)c(-c3ccc4c(c3)CC/C4=N\O)[nH]2)cc1
% of control [3]: 98% | % of control [4]: 89% | % of control [5]: 62%

SMILES: N#Cc1cccc(-c2c[nH]c3ncnc(N4CCOCC4)c23)c1
% of control [6]: 100%

SMILES: O[C@H]1CC[C@H](Nc2ncc3nc(Nc4c(F)cc(F)cc4F)n([C@H]4CCOC4)c3n2)CC1
% of control [7]: 100% | % of control [8]: 85%

SMILES: CN(C)C(=O)Cn1cc(-c2ccc(-c3cncc4ccccc34)cc2)cn1
% of control [9]: 89%

dTM [10]: -0.1 K
SMILES: CN(C(=O)c1cnn2cccnc12)c1cc2c(cc1N1CCOCC1)C(=O)N(C[C@@H](F)C(C)(C)O)C2
